In US6410011B1, “Gene therapy for restenosis using an adenoviral vector” (priority 1994, dated 2002):

Tests used:
[1] = patients treated for viral infection with a non-toxic dose; cited from earlier work
rabbit aorta VSMC = experiment: Cytotoxic activity of the Ad-RSV-TK/ganciclovir combination on smooth muscle cells in culture, by cell counting; assay type: cell-based; conditions: ganciclovir alone or Ad-RSV-TK alone
Protocol: The activity of the adenovirus containing the TK gene, prepared in Example 1, was checked on in vitro models of smooth muscle cells. To this end, smooth muscle cells isolated from rat and rabbit aorta were infected with the recombinant adenovirus Ad-RSV-tk and incubated in the presence of ganciclovir. The effect of the Ad-RSV-tk/ganciclovir combination on cell viability is then confirmed by the colorimetric test employing MTT, 3-(4,5-dimethylthiazol-2-yl)-2,5-diphenyl-tetrazolium bromide, according to the technique described by Mosman (J. Immunol. Meth. 65 (1983) 55), or more accurately by cell counting. Briefly, vascular smooth muscle cells (VSMC) are set up in culture by enzymatic digestion of NZW rabbit aorta according to a method adapted from Chamley et al. (Cell Tissue Res. 177: 503-522 1977). The cells are maintained in the presence of 20% of foetal calf serum and used for all the tests (see below) before the tenth passage. […]
In order to measure the cytotoxic activity of the Ad-RSV-TK/ganciclovir combination, rabbit aorta VSMC are incubated in the presence of the adenovirus diluted in culture medium (DMEM, 0.5% FCS). […] Four days after the addition of ganciclovir, the cells are counted (100% cell viability corresponding to cells not transduced with Ad-RSV-TK and not treated with ganciclovir).

For `Nc1nc(O)c2ncn(COC(CO)CO)c2n1` [ganciclovir], the plasma concentrations [1] is listed as “above 15 μM” and the “cell death with a single agent” value (rabbit aorta VSMC) is listed as “neither simple treatment with ganciclovir nor transduction with Ad-RSV-TK per se is associated with cell death”.
